Data as given in PMC9080270 (RSC Advances, 2018).

Biological target: T1, adenosine A1 receptor (A1AR) (Homo sapiens, UniProt P30542)
T1 sequence (P30542 1-326): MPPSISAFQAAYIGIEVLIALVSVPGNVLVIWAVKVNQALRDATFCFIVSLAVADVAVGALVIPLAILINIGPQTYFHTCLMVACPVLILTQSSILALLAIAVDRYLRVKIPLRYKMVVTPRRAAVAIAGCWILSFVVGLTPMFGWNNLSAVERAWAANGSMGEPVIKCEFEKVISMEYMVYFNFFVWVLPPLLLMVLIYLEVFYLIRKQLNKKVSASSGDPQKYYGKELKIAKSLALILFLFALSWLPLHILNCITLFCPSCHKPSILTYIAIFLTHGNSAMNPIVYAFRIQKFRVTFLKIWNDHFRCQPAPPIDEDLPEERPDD
Assay: NanoBRET saturation binding in HEK293 cells
Assay type: cell-based

Kd: 110 nM
Substance: CA200645
